According to US20240092835A1, “NOVEL PEPTIDES CAPABLE OF ALTERING NK CELL ACTIVITY” (Massachusetts Institute of Technology, priority 2022, published 2024):
“Also recorded” adds a separate entry of the source. Where no end group is shown, it is not given here.

How the values were obtained:
[1] = tested on: NKG2A−/NKG2C− NK cells; assay: NK cell activation markers in control NKG2A-/NKG2C- NK cells incubated with peptide and K562 expressing HLA-E; assay type: cell-based, human
In short: (§1)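 Read-out: % NK cells positive for surface activation markers; a rise indicates activation, a fall indicates inhibition. Targets were K562 cells expressing HLA-E, loaded with human- or HCMV-proteome-derived peptides.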

[2] = tested on: NKG2A−/NKG2C+ NK cells; assay: NK cell activation markers in NKG2A-/NKG2C+ NK cells incubated with peptide and K562 expressing HLA-E (activation); assay type: cell-based, human; conditions: for effect on NKG2A−/NKG2C+ NK cell activation (in words): K562 expressing HLA-E, CD107a, IFNG, TNF, CCL3; for percentage of CCL3+ NK cells / percentage of CD107+ NK cells / percentage of IFNG+ NK cells / percentage of TNF+ NK cells: NKG2A-/NKG2C+ NK cells, K562/HLA-E
In short: as §1

[3] = biological target: T1, HLA-E (Homo sapiens, UniProt P13747); assay: HLA-E surface stabilization assay with RMA-S/HLA-E cells; assay type: cell-based; conditions: 30 μM peptide, 16 hours; for HLA-E surface expression stability (GeoMFI): anti-HLA-E antibody
T1 construct: expressed in transfected cells; host or cells: RMA-S/HLA-E cells (antigen processing-defective lymphoma cell line)
Protocol: HLA-E surface expression was assessed by measuring geometric mean fluorescence intensity (GeoMFI) in RMA-S cells following immunofluorescence staining with an anti-HLA-E antibody (Table 14). Increased GeoMFI was indicative of increased HLA-E surface expression stability following novel peptide exposures (FIG. 3).

[4] = tested on: NKG2A−/NKG2C+ NK cells; assay: NKG2A-/NKG2C+ NK cell activation with peptide and RMA-S cells expressing HLA-E; assay type: cell-based; conditions: RMA-S cells expressing HLA-E, NKG2A−/NKG2C+ NK cells
Protocol: An antigen processing-defective lymphoma cell line (RMA-S), with a low-level expression of HLA-E, were incubated with the novel peptides to determine the inhibitory strength on NKG2A−/NKG2C+NK cells relative to positive control sequences with differential effects ([…] (SEQ ID NO: 19)/VMAPRTLFL (SEQ ID NO: 18)). The effects of the peptides on NK cell inhibition were determined by measuring four markers of NK cell activation (CD107a, IFNG, TNF, CCL3) in NKG2A−/NKG2C+NK cells (FIGS. 2A-2D). Activation was indicated by an increase in percent cells positive for cell surface markers.

[5] = biological target: CD94/NKG2C (Homo sapiens, UniProt P26717+Q13241); assay: Steady-state surface plasmon resonance of peptide-HLA-E complex with CD94/NKG2C; assay type: binding; conditions: for Binding of peptide-HLA-E complexes to CD94/NKG2C normalized to a theoretical Rmax: steady-state SPR
CD94/NKG2C, sequence (P26717 94-231 limits assumed): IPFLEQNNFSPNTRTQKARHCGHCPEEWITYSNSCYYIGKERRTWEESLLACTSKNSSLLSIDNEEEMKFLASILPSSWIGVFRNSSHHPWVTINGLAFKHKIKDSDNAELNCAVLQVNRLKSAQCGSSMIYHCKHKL
CD94/NKG2C, sequence (Q13241 32-179 limits assumed): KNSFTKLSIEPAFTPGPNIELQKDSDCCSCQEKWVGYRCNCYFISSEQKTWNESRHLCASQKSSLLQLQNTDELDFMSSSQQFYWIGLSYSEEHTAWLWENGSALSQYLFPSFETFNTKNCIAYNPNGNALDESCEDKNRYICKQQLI

T1 sequence (P13747 22-358): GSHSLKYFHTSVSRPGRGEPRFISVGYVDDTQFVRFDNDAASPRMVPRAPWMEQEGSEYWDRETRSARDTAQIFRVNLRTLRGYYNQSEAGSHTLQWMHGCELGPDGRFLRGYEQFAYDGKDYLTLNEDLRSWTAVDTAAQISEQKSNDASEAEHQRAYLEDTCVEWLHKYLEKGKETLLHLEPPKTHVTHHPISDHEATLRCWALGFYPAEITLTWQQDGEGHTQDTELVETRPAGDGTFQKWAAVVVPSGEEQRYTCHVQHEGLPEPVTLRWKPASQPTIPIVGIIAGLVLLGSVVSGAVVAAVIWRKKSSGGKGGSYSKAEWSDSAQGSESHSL
T1 sequence (P61769 21-119 partner): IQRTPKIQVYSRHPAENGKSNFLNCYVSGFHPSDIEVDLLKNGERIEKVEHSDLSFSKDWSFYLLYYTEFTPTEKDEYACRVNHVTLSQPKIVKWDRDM

## TGPWRSLWI [human3, TGPWRSLWI]
[1]; Trial 1
  percentage CCL3+ NK cells: 38.1%
  percentage CD107+ NK cells: 28.9%
  percentage TNF+ NK cells: 4.31%
  percentage of IFNG+ NK cells: 17.2%
[1]; Trial 2
  percentage CCL3+ NK cells: 61%
  percentage CD107+ NK cells: 37.9%
  percentage TNF+ NK cells: 8.81%
  percentage of IFNG+ NK cells: 26.9%
[1]; Trial 3
  percentage CCL3+ NK cells: 55.4%
  percentage CD107+ NK cells: 50.4%
  percentage TNF+ NK cells: 20.8%
  percentage of IFNG+ NK cells: 44%
[1]; Trial 4
  percentage CCL3+ NK cells: 36.6%
  percentage CD107+ NK cells: 32.6%
  percentage TNF+ NK cells: 11.3%
  percentage of IFNG+ NK cells: 21.2%
[1]; Trial 5
  percentage CCL3+ NK cells: 31%
  percentage CD107+ NK cells: 26.2%
  percentage TNF+ NK cells: 8.06%
  percentage of IFNG+ NK cells: 19.1%
[1]; Trial 6
  percentage CCL3+ NK cells: 26.5%
  percentage CD107+ NK cells: 18.6%
  percentage TNF+ NK cells: 4.18%
  percentage of IFNG+ NK cells: 8.37%
[2]; listed as SEQ ID NO. 2
  effect on NKG2A−/NKG2C+ NK cell activation (in words): activate
[2]; listed as h3
  effect on NKG2A−/NKG2C+ NK cell activation (in words): activated
[2]; Trial 1
  percentage of CCL3+ NK cells: 60.9%
  percentage of CD107+ NK cells: 50.7%
  percentage of IFNG+ NK cells: 27.8%
  percentage of TNF+ NK cells: 19.1%
[2]; Trial 2
  percentage of CCL3+ NK cells: 75.8%
  percentage of CD107+ NK cells: 63.4%
  percentage of IFNG+ NK cells: 36.4%
  percentage of TNF+ NK cells: 24.8%
[2]; Trial 3
  percentage of CCL3+ NK cells: 75.7%
  percentage of CD107+ NK cells: 73.9%
  percentage of IFNG+ NK cells: 55.4%
  percentage of TNF+ NK cells: 47.1%
[2]; Trial 4
  percentage of CCL3+ NK cells: 64.5%
  percentage of CD107+ NK cells: 62.3%
  percentage of IFNG+ NK cells: 46.9%
  percentage of TNF+ NK cells: 37.4%
[2]; Trial 5
  percentage of CCL3+ NK cells: 65.7%
  percentage of CD107+ NK cells: 61%
  percentage of IFNG+ NK cells: 43.5%
  percentage of TNF+ NK cells: 37.7%
[2]; Trial 6
  percentage of CCL3+ NK cells: 46%
  percentage of CD107+ NK cells: 39.5%
  percentage of IFNG+ NK cells: 23.3%
  percentage of TNF+ NK cells: 15.8%
[3]; Trial 1
  HLA-E surface expression stability (GeoMFI): 510 GeoMFI
[3]; Trial 2
  HLA-E surface expression stability (GeoMFI): 428 GeoMFI
[3]; Trial 3
  HLA-E surface expression stability (GeoMFI): 421 GeoMFI
[3]; Trial 4
  HLA-E surface expression stability (GeoMFI): 596 GeoMFI
[3]; listed as GTF3C5293-301
  HLA-E surface expression stabilization strength (in words): closest to the experimental negative control (DMSO); also recorded: lowest
[4]
  increase in CCL3+ NK cells (in words): slight increases
  increase in CD107a+ NK cells (in words): slight increases
  increase in IFNG+ NK cells (in words): no increase
  increase in TNF+ NK cells (in words): no increase
[5]; CD94/NKG2C concentration 0 μM
  binding of peptide-HLA-E complex to CD94/NKG2C normalized to a fitted Rmax: 0.006
[5]; CD94/NKG2C concentration 0.1 μM
  binding of peptide-HLA-E complex to CD94/NKG2C normalized to a fitted Rmax: 0.008
[5]; CD94/NKG2C concentration 0.2 μM
  binding of peptide-HLA-E complex to CD94/NKG2C normalized to a fitted Rmax: 0.007
[5]; CD94/NKG2C concentration 0.4 μM
  binding of peptide-HLA-E complex to CD94/NKG2C normalized to a fitted Rmax: 0.011
[5]; CD94/NKG2C concentration 0.8 μM
  binding of peptide-HLA-E complex to CD94/NKG2C normalized to a fitted Rmax: 0.016
[5]; CD94/NKG2C concentration 1.6 μM
  binding of peptide-HLA-E complex to CD94/NKG2C normalized to a fitted Rmax: 0.026
[5]; CD94/NKG2C concentration 3.2 μM
  binding of peptide-HLA-E complex to CD94/NKG2C normalized to a fitted Rmax: 0.044
[5]; CD94/NKG2C concentration 6.4 μM
  binding of peptide-HLA-E complex to CD94/NKG2C normalized to a fitted Rmax: 0.078
[5]; CD94/NKG2C concentration 12.8 μM
  binding of peptide-HLA-E complex to CD94/NKG2C normalized to a fitted Rmax: 0.130
[5]; CD94/NKG2C concentration 25.6 μM
  binding of peptide-HLA-E complex to CD94/NKG2C normalized to a fitted Rmax: 0.219
[5]; CD94/NKG2C concentration 51.2 μM
  binding of peptide-HLA-E complex to CD94/NKG2C normalized to a fitted Rmax: 0.353
[5]; CD94/NKG2C concentration 102.4 μM
  binding of peptide-HLA-E complex to CD94/NKG2C normalized to a fitted Rmax: 0.537
[5]; CD94/NKG2C analyte concentration 0 μM
  Binding of peptide-HLA-E complexes to CD94/NKG2C normalized to a theoretical Rmax: 0.002
[5]; CD94/NKG2C analyte concentration 0.1 μM
  Binding of peptide-HLA-E complexes to CD94/NKG2C normalized to a theoretical Rmax: 0.003
[5]; CD94/NKG2C analyte concentration 0.2 μM
  Binding of peptide-HLA-E complexes to CD94/NKG2C normalized to a theoretical Rmax: 0.003
[5]; CD94/NKG2C analyte concentration 0.4 μM
  Binding of peptide-HLA-E complexes to CD94/NKG2C normalized to a theoretical Rmax: 0.004
[5]; CD94/NKG2C analyte concentration 0.8 μM
  Binding of peptide-HLA-E complexes to CD94/NKG2C normalized to a theoretical Rmax: 0.006
[5]; CD94/NKG2C analyte concentration 1.6 μM
  Binding of peptide-HLA-E complexes to CD94/NKG2C normalized to a theoretical Rmax: 0.010
[5]; CD94/NKG2C analyte concentration 3.2 μM
  Binding of peptide-HLA-E complexes to CD94/NKG2C normalized to a theoretical Rmax: 0.017
[5]; CD94/NKG2C analyte concentration 6.4 μM
  Binding of peptide-HLA-E complexes to CD94/NKG2C normalized to a theoretical Rmax: 0.030
[5]; CD94/NKG2C analyte concentration 12.8 μM
  Binding of peptide-HLA-E complexes to CD94/NKG2C normalized to a theoretical Rmax: 0.050
[5]; CD94/NKG2C analyte concentration 25.6 μM
  Binding of peptide-HLA-E complexes to CD94/NKG2C normalized to a theoretical Rmax: 0.084
[5]; CD94/NKG2C analyte concentration 51.2 μM
  Binding of peptide-HLA-E complexes to CD94/NKG2C normalized to a theoretical Rmax: 0.135
[5]; CD94/NKG2C analyte concentration 102.4 μM
  Binding of peptide-HLA-E complexes to CD94/NKG2C normalized to a theoretical Rmax: 0.205
